Measured values as given in US4263299A, “Heterocyclic coumarin derivatives” (Beecham Group Limited, priority 1978, dated 1981).
Where two headings read alike, the source gives them in different places.

Legend:
[1] = target: T1, histamine (spasmogenic effects) on isolated guinea pig ileum (Cavia porcellus, UniProt P31389); assay: Anti-histamine activity in vitro on guinea pig ileum (pA2); details: for Kb: read-out: pA2 Mean ± SEM (antihistamine activity in vitro) (converted)
T1 construct: isolated guinea pig ileum; from tissue; host or cells: isolated guinea pig ileum
T1 sequence (P31389 whole entry): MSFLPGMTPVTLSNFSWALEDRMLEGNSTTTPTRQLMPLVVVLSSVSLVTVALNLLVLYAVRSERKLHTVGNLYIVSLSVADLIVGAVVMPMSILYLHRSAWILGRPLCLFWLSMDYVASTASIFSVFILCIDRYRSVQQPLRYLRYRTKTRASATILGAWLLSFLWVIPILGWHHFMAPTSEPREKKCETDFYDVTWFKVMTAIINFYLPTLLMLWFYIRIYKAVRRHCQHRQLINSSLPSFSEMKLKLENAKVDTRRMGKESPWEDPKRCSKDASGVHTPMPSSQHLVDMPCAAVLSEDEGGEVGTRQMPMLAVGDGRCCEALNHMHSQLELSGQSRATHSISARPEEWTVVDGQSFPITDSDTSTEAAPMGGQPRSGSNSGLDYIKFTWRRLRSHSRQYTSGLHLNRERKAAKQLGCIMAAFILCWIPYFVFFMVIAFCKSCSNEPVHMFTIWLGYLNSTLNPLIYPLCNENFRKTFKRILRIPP
Method: (b) antagonise the spasmogenic effects of histamine on isolated guinea pig ileum.
(b) Measurement of anti-histamine activity in vitro on guinea pig ileum using the […]
The pA2 of the compound was determined in a similar manner to that described by Schild, H. O. (pA, A new scale for the measurement of drug antagonism. Brit. J. Pharmacol. 2, 189, 1947).

[2] = test system: mice; assay: Acute intravenous toxicity in mice; format: in vivo, mouse
[3] = test system: rat passive peritoneal anaphylaxis; assay: Rat passive peritoneal anaphylaxis (PPA); format: in vivo; details: mean ± SEM, 3-7 rats per group
Source text: (a) inhibit rat passive peritoneal anaphylaxis; and
(a) Rat passive peritoneal anaphylaxis (PPA)
The method has been described previously (Ross, Janet W., Smith, H. and Spicer, Barbara A. Increased vascular permeability during passive peritoneal anaphylaxis in the rat. Int. Arch. Allergy appl. Immun. 51, 226, 1976.)
Serum containing heat-labile homocytotropic antibody was raised in rats to ovalbumin by a method similar to that described by Mota, I. (The mechanism of anaphylaxis. I. Production and biological properties of mast cell sensitising antibody. Immunology, 7, 681; 1964). Male Wistar rats of 250-300 g were given intraperitoneal injections of 0.5 ml of Bordetella pertussis vaccine (4×10^10 organisms/ml; Burroughs Wellcome, London) and subcutaneous injections of 0.5 ml of an emulsion of 100 mg of ovalbumin in 2 ml of isotonic saline and 3 ml of Freund's incomplete adjuvant. The rats were bled by cardiac puncture on day 18, the blood was pooled and the serum separated, stored at -20° C. and thawed only once before use. The serum produced PCA activity in recipient rats down to a dilution of 1:32 to 1:64 after 72 hr and persisted for several days. This activity was lost to a dilution of 1:2 by heating at 56° for 4 hr even when the sensitising period was reduced to 4 hr.
Passive peritoneal anaphylaxis
Rats were given intraperitoneal injections of 2 ml of a 1:5 dilution of the rat anti-serum in isotonic saline. 2 hr later 0.3 ml of a 5% solution of Pontamine Sky Blue (Raymond A. Lamb, London) is isotonic saline was injected intravenously, followed by an intraperitoneal injection of the test compound in 1 ml of saline; (control rats received 1 ml of saline); followed 30 sec. later by an intraperitoneal injection of 5 ml of a Tyrode solution containing 50 μg/ml heparin and 0.4 mg/ml of ovalbumin. The concentrations of the compounds were quoted as those in the 6 ml of fluid injected intraperitoneally. Extractly 5 min. after challenge the rats were stunned and bled and their peritoneal fluids were collected by opening their peritoneal cavities over funnels into polycarbonate tubes in ice. The supernatants were separated from the cellular residue by centrifuging at 150 g for 5 min. and any samples obviously contaminated with blood were discarded and the remainder were retained for estimation of dye, histamine and SRS-A. Groups of at least 5 rats were used for each dose of compound and the treatments were randomized.
Assay of peritoneal fluids
Collected peritoneal fluids were immediately cooled to 0° C. and centrifuged and the supernatant fluids assayed for dye within 2 hr. 0.5-ml samples of the supernatants were added to 1 ml of 12% trichloracetic acid and stored at -20° C. and used to assay for histamine. The remainders of the supernatant fluids were placed in a boiling water bath for 5 min. and stored frozen at -20° C. until assayed for SRS-A.
The optical densities (OD) at 625 nm of the supernatants were determined. Samples were taken from supernatants with an OD greater than 2 and diluted in Tyrode's solution before reading.
Histamine was assayed using an automated spectrofluorimetric system (Technicon Autoanalyser) by a method similar to that of Evans, D. P., Lewis, J. A. and Thomson, D. S.: (An automated fluorimetric assay for the rapid determination of histamine in biological fluids. Life Sci. 12,327, 1973).
SRS-A was assayed on the isolated guinea pig ileum preparation in the presence of atropine (5×10^-7 M) and mepyramine maleate (10^-6 M), the latter to abolish the histamine response. (Brocklehurst, W. E. The release of histamine and formulation of a slow reacting substance (SRS-A) during anaphylactic shock. J. Physiol., Lond. 151, 416, 1960). Bulked peritoneal fluids from passively sensitised and challenged rats were centrifuged, heated, stored at -20° C. in 0.5 ml aliquots, and used as a reference SRS-A standard, and arbitrarily designated as containing 10 Units per ml. […]

[4] = contact time 10.0 min, (part assay) for 4d

Kb ([1]; contact time 0.5 min) [nM]	Kb ([1]; contact time 2.0 min) [nM]	pA2 Mean ± SEM (antihistamine activity in vitro) [1, 4]	SMILES	Kb [1, 4] [nM]	Dye concentration in peritoneal fluid as % of that in control rats not given compound ([3]; 2 × 10^-6 M injected i.p.) [%]	Histamine concentration in peritoneal fluid as % of that in control rats not given compound ([3]; 2 × 10^-6 M injected i.p.) [%]	SRSA concentration in peritoneal fluid as % of that in control rats not given compound ([3]; 2 × 10^-6 M injected i.p.) [%]	Dye concentration in peritoneal fluid as % of that in control rats not given compound ([3]; 2 × 10^-5 M injected i.p.) [%]	Histamine concentration in peritoneal fluid as % of that in control rats not given compound ([3]; 2 × 10^-5 M injected i.p.) [%]	SRSA concentration in peritoneal fluid as % of that in control rats not given compound ([3]; 2 × 10^-5 M injected i.p.) [%]	Dye concentration in peritoneal fluid as % of that in control rats not given compound ([3]; 2 × 10^-4 M injected i.p.) [%]	Histamine concentration in peritoneal fluid as % of that in control rats not given compound ([3]; 2 × 10^-4 M injected i.p.) [%]	SRSA concentration in peritoneal fluid as % of that in control rats not given compound ([3]; 2 × 10^-4 M injected i.p.) [%]	other results
50.1	20	8.3	O=c1oc2cc(OCC(O)CN3CCN(Cc4ccc(Cl)cc4)CC3)ccc2c(O)c1[N+](=O)[O-] (centres unmarked) [Example 2d, 1-(4-Chlorobenzyl)-4-[2-hydroxy-3-(4-hydroxy-3-nitrocoumarin-7-yloxy)propyl]piperazine]		46 ± 4	23 ± 1.0	65 ± 13	36 ± 4	13 ± 0.9	47 ± 11				
25.1	10	8.4	CCCc1c(OCC(O)CN2CCN(Cc3ccc(Cl)cc3)CC2)ccc2c(O)c([N+](=O)[O-])c(=O)oc12 (centres unmarked) [Example 3d, 1-(4-chlorobenzyl)-4-[2-hydroxy-3-(4-hydroxy-3-nitro-8-n-propylcoumarin-7-yloxy)propyl]piperazine]		79 ± 9	55 ± 9	81 ± 6	47 ± 6	15 ± 2	75 ± 9				
63.1	50.1		O=c1oc2cc(OCCN3CCN(Cc4ccc(Cl)cc4)CC3)ccc2c(O)c1[N+](=O)[O-] [Example 4d, 1-(4-Chlorobenzyl)-4-[2-(4-hydroxy-3-nitrocoumarin-7-yloxy)ethyl]piperazine]	~126				65 ± 11	39 ± 8	73 ± 7	40 ± 7	11 ± 0.9	26 ± 6	
2000	2000	5.6	O=c1oc2cc(CN3CCN(Cc4ccc(Cl)cc4)CC3)ccc2c(O)c1[N+](=O)[O-] [Example 5e, 1-(4-Chlorobenzyl)-4-[(4-hydroxy-3-nitrocoumarin-7-yl)methyl]piperazine]		103 ± 13	93 ± 18	94 ± 10	88 ± 14	31 ± 2	67 ± 15	28 ± 9	17 ± 3		
79.4	25.1	7.9	O=c1oc2cc(OCCCN3CCN(Cc4ccccc4)CC3)ccc2c(O)c1[N+](=O)[O-] [Example 6d, 1-Benzyl-4-[3-(4-hydroxy-3-nitrocoumarin-7-yloxy)propyl]piperazine]					91 ± 12	56 ± 8	86 ± 14	67 ± 10	12 ± 1.0	55 ± 5	

SMILES	Kb ([1]; contact time 0.5 min) [nM]	Kb ([1]; contact time 2.0 min) [nM]	pA2 Mean ± SEM (antihistamine activity in vitro) [1, 4]	Kb [1, 4] [nM]	Dye concentration in peritoneal fluid as % of that in control rats not given compound ([3]; 2 × 10^-6 M injected i.p.) [%]	Histamine concentration in peritoneal fluid as % of that in control rats not given compound ([3]; 2 × 10^-6 M injected i.p.) [%]	SRSA concentration in peritoneal fluid as % of that in control rats not given compound ([3]; 2 × 10^-6 M injected i.p.) [%]	Dye concentration in peritoneal fluid as % of that in control rats not given compound ([3]; 2 × 10^-5 M injected i.p.) [%]	Histamine concentration in peritoneal fluid as % of that in control rats not given compound ([3]; 2 × 10^-5 M injected i.p.) [%]	SRSA concentration in peritoneal fluid as % of that in control rats not given compound ([3]; 2 × 10^-5 M injected i.p.) [%]	Dye concentration in peritoneal fluid as % of that in control rats not given compound ([3]; 2 × 10^-4 M injected i.p.) [%]	Histamine concentration in peritoneal fluid as % of that in control rats not given compound ([3]; 2 × 10^-4 M injected i.p.) [%]	SRSA concentration in peritoneal fluid as % of that in control rats not given compound ([3]; 2 × 10^-4 M injected i.p.) [%]	other results
O=c1oc2cc(OCCCN3CCN(Cc4ccc(Cl)cc4)CC3)ccc2c(O)c1[N+](=O)[O-] [Example 1f, 1-(4-Chlorobenzyl)-4-[3-(4-hydroxy-3-nitrocoumarin-7-yloxy)propyl]piperazine]	15.8	2.51		0.631	32.1 ± 3.6	28.4 ± 3.4	62.5 ± 17.2							Deaths in mice at the high dose ([2]; mice, intravenous, 300 mg/kg, group of three): all animals died; Deaths in mice during four days ([2]; mice, intravenous, 1, 3 and 10 mg/kg, three groups of ten): No deaths occurred; Deaths in mice at the two lower doses ([2]; mouse, in vivo): none; Dye concentration in peritoneal fluid as % of that in control rats not given compound ([3]; 2 × 10^-7 M injected i.p.): 88.1 ± 8.3%; Histamine concentration in peritoneal fluid as % of that in control rats not given compound ([3]; 2 × 10^-7 M injected i.p.): 75.8 ± 7.5%; SRSA concentration in peritoneal fluid as % of that in control rats not given compound ([3]; 2 × 10^-7 M injected i.p.): 71.8 ± 14.8%; Dye concentration in peritoneal fluid as % of that in control rats not given compound ([3]; 2 × 10^-8 M injected i.p.): 100 ± 16.7%; Histamine concentration in peritoneal fluid as % of that in control rats not given compound ([3]; 2 × 10^-8 M injected i.p.): 99.6 ± 8.3%; SRSA concentration in peritoneal fluid as % of that in control rats not given compound ([3]; 2 × 10^-8 M injected i.p.): 100 ± 14.8%
